Earlier results as cited in US8980870B2, “Solid telmisartan pharmaceutical formulations” (Boehringer Ingelheim International GmbH, priority 2002, dated 2015).

Conditions: physiological pH range of the gastrointestinal tract, between pH 1 to 7; both polymorphic forms A and B

solubility in aqueous systems: very poor solubility
SMILES: CCCc1nc2c(C)cc(-c3nc4ccccc4n3C)cc2n1Cc1ccc(-c2ccccc2C(=O)O)cc1 [telmisartan, 4′-[2-n-propyl-4-methyl-6-(1-methylbenzimidazol-2-yl)benzimidazol-1-ylmethyl]biphenyl-2-carboxylic acid]
